US20010009995A1, “Oxybutynin therapy” (priority 1998, published 2001)

Conditions: human, in vivo

CCNCC#CCOC(=O)C(O)(c1ccccc1)C1CCCCC1 (stereo not shown) [DESOXY, desethyloxybutynin]
t1/2 life of DESOXY compared to OXY: shorter
